Read-outs that look alike come from different tables or passages of the source.
Assays:
Test in all cases: Test E pre-/postemergence plant response
Format in all cases: in vivo
[1] = system: downy bromegrass (Bromus tectorum); conditions: scale 0 to 100, read-out: Plant response rating, Bromegrass, Downy; for pest or weed control at 16 g/ha: 16 g ai/ha; for pest or weed control at 31 g/ha: 31 g ai/ha; for pest or weed control at 62 g/ha: 62 g ai/ha; for pest or weed control at 125 g/ha: 125 g ai/ha
Summary of the method: (§1)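 Visual scores on a 0–100 scale (100 = complete control) were assigned against untreated controls 7–21 days after treatment in a controlled environment. Compounds, formulated with solvent plus surfactant, were applied to pre-emergence silt-loam sowings or to 1- to 4-leaf plants (2–18 cm) in potting medium.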

[2] = system: winter barley (Hordeum vulgare); conditions: scale 0 to 100, read-out: Plant response rating, Barley, Winter; for plant injury at 16 g/ha: 16 g ai/ha; for plant injury at 31 g/ha: 31 g ai/ha; for plant injury at 62 g/ha: 62 g ai/ha; for plant injury at 125 g/ha: 125 g ai/ha
Summary of the method: as §1

[3] = system: chamomile (scentless chamomile, Matricaria inodora); conditions: Tripleurospermum inodorum, post-emergence, Postemergence, scale 0 to 100, read-out: Plant response rating, Chamomile
Summary of the method: as §1

[4] = system: galium (catchweed bedstraw, Galium aparine); conditions: scale 0 to 100, read-out: Plant response rating, Galium; for pest or weed control at 16 g/ha: 16 g ai/ha; for pest or weed control at 31 g/ha: 31 g ai/ha; for pest or weed control at 62 g/ha: 62 g ai/ha; for pest or weed control at 125 g/ha: 125 g ai/ha
Summary of the method: as §1

[5] = system: blackgrass (Alopecurus myosuroides); conditions: scale 0 to 100, read-out: Plant response rating, Blackgrass; for pest or weed control at 16 g/ha: 16 g ai/ha; for pest or weed control at 31 g/ha: 31 g ai/ha; for pest or weed control at 62 g/ha: 62 g ai/ha; for pest or weed control at 125 g/ha: 125 g ai/ha
Summary of the method: as §1

[6] = system: deadnettle (henbit deadnettle, Lamium amplexicaule); conditions: scale 0 to 100, read-out: Plant response rating, Deadnettle; for pest or weed control at 16 g/ha: 16 g ai/ha; for pest or weed control at 31 g/ha: 31 g ai/ha; for pest or weed control at 62 g/ha: 62 g ai/ha; for pest or weed control at 125 g/ha: 125 g ai/ha
Summary of the method: as §1

[7] = system: lambsquarters (Chenopodium album); conditions: scale 0 to 100, read-out: Plant response rating, Lambsquarters; for pest or weed control at 16 g/ha: 16 g ai/ha; for pest or weed control at 31 g/ha: 31 g ai/ha; for pest or weed control at 62 g/ha: 62 g ai/ha; for pest or weed control at 125 g/ha: 125 g ai/ha
Summary of the method: as §1

[8] = system: bluegrass (annual bluegrass, Poa annua); conditions: scale 0 to 100, read-out: Plant response rating, Bluegrass; for pest or weed control at 16 g/ha: 16 g ai/ha; for pest or weed control at 31 g/ha: 31 g ai/ha; for pest or weed control at 62 g/ha: 62 g ai/ha; for pest or weed control at 125 g/ha: 125 g ai/ha
Summary of the method: as §1

FC(F)c1cc(-c2ccccc2Oc2ncc(Cl)cn2)on1 [Compound 53, 5-chloro-2-[2-[3-(difluoromethyl)-5-isoxazolyl]phenoxy]pyrimidine]
pest or weed control at 16 g/ha ([1]; post-emergence, Postemergence): 0% | pest or weed control at 31 g/ha ([1]; post-emergence, Postemergence): 0% | pest or weed control at 62 g/ha ([1]; post-emergence, Postemergence): 5% | pest or weed control at 125 g/ha ([1]; post-emergence, Postemergence): 5% | pest or weed control at 16 g/ha ([1]; pre-emergence, Preemergence): 0% | pest or weed control at 31 g/ha ([1]; pre-emergence, Preemergence): 15% | pest or weed control at 62 g/ha ([1]; pre-emergence, Preemergence): 15% | pest or weed control at 125 g/ha ([1]; pre-emergence, Preemergence): 15% | plant injury at 16 g/ha ([2]; post-emergence, Postemergence): 5% | plant injury at 31 g/ha ([2]; post-emergence, Postemergence): 5% | plant injury at 62 g/ha ([2]; post-emergence, Postemergence): 5% | plant injury at 125 g/ha ([2]; post-emergence, Postemergence): 10% | plant injury at 16 g/ha ([2]; pre-emergence, Preemergence): 15% | plant injury at 31 g/ha ([2]; pre-emergence, Preemergence): 10% | plant injury at 62 g/ha ([2]; pre-emergence, Preemergence): 30% | plant injury at 125 g/ha ([2]; pre-emergence, Preemergence): 25% | pest or weed control at 16 g/ha ([3]; 16 g ai/ha): 5% | pest or weed control at 31 g/ha ([3]; 31 g ai/ha): 5% | pest or weed control at 62 g/ha ([3]; 62 g ai/ha): 5% | pest or weed control at 125 g/ha ([3]; 125 g ai/ha): 0% | pest or weed control at 16 g/ha ([4]; post-emergence, Postemergence): 75% | pest or weed control at 31 g/ha ([4]; post-emergence, Postemergence): 75% | pest or weed control at 62 g/ha ([4]; post-emergence, Postemergence): 75% | pest or weed control at 125 g/ha ([4]; post-emergence, Postemergence): 75% | pest or weed control at 16 g/ha ([4]; pre-emergence, Preemergence): 25% | pest or weed control at 31 g/ha ([4]; pre-emergence, Preemergence): 30% | pest or weed control at 62 g/ha ([4]; pre-emergence, Preemergence): 60% | pest or weed control at 125 g/ha ([4]; pre-emergence, Preemergence): 100% | pest or weed control at 16 g/ha ([5]; post-emergence, Postemergence): 0% | pest or weed control at 31 g/ha ([5]; post-emergence, Postemergence): 5% | pest or weed control at 62 g/ha ([5]; post-emergence, Postemergence): 10% | pest or weed control at 125 g/ha ([5]; post-emergence, Postemergence): 25% | pest or weed control at 16 g/ha ([5]; pre-emergence, Preemergence): 10% | pest or weed control at 31 g/ha ([5]; pre-emergence, Preemergence): 10% | pest or weed control at 62 g/ha ([5]; pre-emergence, Preemergence): 25% | pest or weed control at 125 g/ha ([5]; pre-emergence, Preemergence): 30% | pest or weed control at 16 g/ha ([6]; post-emergence, Postemergence): 20% | pest or weed control at 31 g/ha ([6]; post-emergence, Postemergence): 30% | pest or weed control at 62 g/ha ([6]; post-emergence, Postemergence): 60% | pest or weed control at 125 g/ha ([6]; post-emergence, Postemergence): 65% | pest or weed control at 16 g/ha ([6]; pre-emergence, Preemergence): 10% | pest or weed control at 31 g/ha ([6]; pre-emergence, Preemergence): 10% | pest or weed control at 62 g/ha ([6]; pre-emergence, Preemergence): 50% | pest or weed control at 125 g/ha ([6]; pre-emergence, Preemergence): 65% | pest or weed control at 16 g/ha ([7]; post-emergence, Postemergence): 65% | pest or weed control at 31 g/ha ([7]; post-emergence, Postemergence): 70% | pest or weed control at 62 g/ha ([7]; post-emergence, Postemergence): 65% | pest or weed control at 125 g/ha ([7]; post-emergence, Postemergence): 75% | pest or weed control at 16 g/ha ([7]; pre-emergence, Preemergence): 60% | pest or weed control at 31 g/ha ([7]; pre-emergence, Preemergence): 75% | pest or weed control at 62 g/ha ([7]; pre-emergence, Preemergence): 100% | pest or weed control at 125 g/ha ([7]; pre-emergence, Preemergence): 100% | pest or weed control at 16 g/ha ([8]; post-emergence, Postemergence): 0% | pest or weed control at 31 g/ha ([8]; post-emergence, Postemergence): 0% | pest or weed control at 62 g/ha ([8]; post-emergence, Postemergence): 5% | pest or weed control at 125 g/ha ([8]; post-emergence, Postemergence): 5% | pest or weed control at 16 g/ha ([8]; pre-emergence, Preemergence): 10% | pest or weed control at 31 g/ha ([8]; pre-emergence, Preemergence): 10% | pest or weed control at 62 g/ha ([8]; pre-emergence, Preemergence): 20% | pest or weed control at 125 g/ha ([8]; pre-emergence, Preemergence): 25%
